In ChEMBL document CHEMBL3045068, “Effect of methomyl and oxamyl soil applications on early control of nematodes and insects” (Pest Manag Sci, 2011):
Converted amounts (≈) assume the structure as drawn.

Experiments:
Pisum sativum [1] = assay: Phytotoxicity in Pisum sativum (pea) assessed as plant height at 2 kg ai/ha applied to soil measured up to 7 days post planting at 19 degC (reference value: 6.2 +/- 0.6 cm); type: organism-based; conditions: lathyrus oleraceus, in vivo, other, 168 h
Bemisia tabaci = assay: Insecticidal activity against second-instar […] stage of Bemisia tabaci (sweet potato whitefly) infested cotton assessed as mortality applied through foliar spray after 6 days; type: functional
Meloidogyne incognita [2] = assay: Nematicidal activity against second juvenile stage of Meloidogyne incognita (root-knot nematode) infected lima bean plant assessed as root dry weight at 4 kg ai/ha applied to soil measured up to 14 days post planting under green house conditions (reference value: 0.5 +/- 0.052 g); type: functional
Pisum sativum [3] = assay: Phytotoxicity in Pisum sativum (pea) assessed as root dry weight at 4 kg ai/ha applied to soil measured up to 7 days post planting at 19 degC (reference value: 2 +/- 0.21 g); type: organism-based; conditions: lathyrus oleraceus, in vivo, other, 168 h
Phaseolus lunatus [4] = assay: Phytotoxicity in Phaseolus lunatus (lima bean) plant assessed as emergence at 1.12 kg ai/ha applied to soil under green house conditions (reference value: 70 +/- 16%); type: organism-based; conditions: in vivo, other
Meloidogyne incognita [5] = assay: Nematicidal activity against second juvenile stage of Meloidogyne incognita (root-knot nematode) infected lima bean plant assessed as reduction in root gall index at 1 kg ai/ha applied to soil measured during planting under green house conditions (reference value: 7 +/- 0.27%); type: functional
Meloidogyne incognita [6] = assay: Nematicidal activity against second juvenile stage of Meloidogyne incognita (root-knot nematode) infected pea plant assessed as root fresh weight at 2 kg ai/ha applied to soil measured up to 7 days post planting under green house conditions (reference value: 1.83 +/- 0.3 g); type: functional
Meloidogyne incognita [7] = assay: Nematicidal activity against second juvenile stage of Meloidogyne incognita (root-knot nematode) infected pea plant assessed as emergence at 4 kg ai/ha applied to soil measured up to 14 days post planting under green house conditions (reference value: 75 +/- 13%); type: functional
Pisum sativum [8] = assay: Phytotoxicity in Pisum sativum (pea) assessed as root dry weight at 3 kg ai/ha applied to soil measured up to 7 days post planting at 19 degC (reference value: 2 +/- 0.21 g); type: organism-based; conditions: lathyrus oleraceus, in vivo, other, 168 h
Pisum sativum [9] = assay: Phytotoxicity in Pisum sativum (pea) assessed as plant fresh weight at 3 kg ai/ha applied to soil measured up to 7 days post planting at 19 degC (reference value: 9.4 +/- 0.54 g); type: organism-based; conditions: lathyrus oleraceus, in vivo, other, 168 h
[10] = tested on: Frankliniella occidentalis; assay: Insecticidal activity against Frankliniella occidentalis (western flower thrips) infested beans assessed as mortality applied to soil after 7 days; type: functional
Meloidogyne incognita [11] = assay: Nematicidal activity against second juvenile stage of Meloidogyne incognita (root-knot nematode) infected lima bean plant assessed as shoot dry weight at 4 kg ai/ha applied to soil measured up to 14 days post planting under green house conditions (reference value: 1.84 +/- 0.18 g); type: functional
Phaseolus lunatus [12] = assay: Phytotoxicity in Phaseolus lunatus (lima bean) root assessed as root dry weight at 1.56 kg ai/ha applied to soil measured up to 7 days under green house conditions (reference value: 0.36 +/- 0.071 g); type: organism-based; conditions: in vivo, other, 168 h
Meloidogyne incognita [13] = assay: Nematicidal activity against second juvenile stage of Meloidogyne incognita (root-knot nematode) infected lima bean plant assessed as reduction in root gall index at 3 kg ai/ha applied to soil measured up to 14 days post planting under green house conditions (reference value: 7 +/- 0.27%); type: functional
Meloidogyne incognita [14] = assay: Nematicidal activity against second juvenile stage of Meloidogyne incognita (root-knot nematode) infected lima bean plant assessed as reduction in root gall index at 2 kg ai/ha applied to soil measured during planting under green house conditions (reference value: 7 +/- 0.27%); type: functional
Pisum sativum [15] = assay: Phytotoxicity in Pisum sativum (pea) assessed as plant height at 3 kg ai/ha applied to soil measured up to 7 days post planting at 27 degC under green house conditions (reference value: 9.6 +/- 1.5 cm); type: organism-based; conditions: lathyrus oleraceus, in vivo, other, 168 h
Meloidogyne incognita [16] = assay: Nematicidal activity against second juvenile stage of Meloidogyne incognita (root-knot nematode) infected pea plant assessed as plant fresh weight at 3 kg ai/ha applied to soil measured up to 14 days post planting under green house conditions (reference value: 4.3 +/- 0.56 g); type: functional
Meloidogyne incognita [17] = assay: Nematicidal activity against second juvenile stage of Meloidogyne incognita (root-knot nematode) infected lima bean plant assessed as emergence at 2 kg ai/ha applied to soil measured during planting under green house conditions (reference value: 83 +/- 5%); type: functional
Pisum sativum [18] = assay: Phytotoxicity in Pisum sativum (pea) assessed as plant height at 2 kg ai/ha applied to soil measured up to 7 days post planting at 27 degC under green house conditions (reference value: 9.6 +/- 1.5 cm); type: organism-based; conditions: lathyrus oleraceus, in vivo, other, 168 h
Meloidogyne incognita [19] = assay: Nematicidal activity against second juvenile stage of Meloidogyne incognita (root-knot nematode) assessed as mortality at 20 mg ai/L after 48 to 72 hr relative to control; type: functional
Phaseolus lunatus [20] = assay: Phytotoxicity in Phaseolus lunatus (lima bean) plant assessed as emergence at 2.12 kg ai/ha applied to soil measured up to 7 days under green house conditions (reference value: 70 +/- 16%); type: organism-based; conditions: in vivo, other, 168 h
Pisum sativum [21] = assay: Phytotoxicity in Pisum sativum (pea) assessed as root dry weight at 2 kg ai/ha applied to soil measured up to 7 days post planting at 19 degC (reference value: 2 +/- 0.21 g); type: organism-based; conditions: lathyrus oleraceus, in vivo, other, 168 h
Meloidogyne incognita [22] = assay: Nematicidal activity against second juvenile stage of Meloidogyne incognita (root-knot nematode) infected pea plant assessed as root fresh weight at 3 kg ai/ha applied to soil measured up to 14 days post planting under green house conditions (reference value: 1.83 +/- 0.3 g); type: functional
Solanum lycopersicum = assay: Phytotoxicity in Solanum lycopersicum (tomato) assessed as concentration required to cause foliar edge burn applied to soil after 5 weeks; type: organism-based; conditions: in vivo, 840 h
Meloidogyne incognita [23] = assay: Nematicidal activity against second juvenile stage of Meloidogyne incognita (root-knot nematode) infected lima bean plant assessed as root dry weight at 2 kg ai/ha applied to soil measured up to 7 days post planting under green house conditions (reference value: 0.5 +/- 0.052 g); type: functional
Meloidogyne incognita [24] = assay: Nematicidal activity against second juvenile stage of Meloidogyne incognita (root-knot nematode) infected lima bean plant assessed as shoot dry weight at 2 kg ai/ha applied to soil measured up to 7 days post planting under green house conditions (reference value: 1.84 +/- 0.18 g); type: functional
Meloidogyne incognita [25] = assay: Nematicidal activity against second juvenile stage of Meloidogyne incognita (root-knot nematode) infected pea plant assessed as root dry weight at 2 kg ai/ha applied to soil measured up to 7 days post planting under green house conditions (reference value: 0.25 +/- 0.041 g); type: functional
Meloidogyne incognita [26] = assay: Nematicidal activity against second juvenile stage of Meloidogyne incognita (root-knot nematode) infected lima bean plant assessed as emergence at 2 kg ai/ha applied to soil measured up to 7 days post planting under green house conditions (reference value: 83 +/- 5%); type: functional
Phaseolus lunatus [27] = assay: Phytotoxicity in Phaseolus lunatus (lima bean) plant assessed as plant dry weight at 1.12 kg ai/ha applied to soil under green house conditions (reference value: 1.20 +/- 0.21 g); type: organism-based; conditions: in vivo, other

SMILES: CNC(=O)ON=C(C)SC [METHOMYL]
- Activity (Pisum sativum [1]): 7.3 cm
- LC90 (Bemisia tabaci): 1589 µg/mL (≈ 9800 µM)
- LC50 (Bemisia tabaci; Bemisia tabaci, foliar, 144 h): 203 µg/mL (≈ 1250 µM)
- Activity (Meloidogyne incognita [2]): 0.27 g
- Activity (Pisum sativum [3]): 1.7 g
- Activity (Phaseolus lunatus [4]): 80%
- Root_galling_index (Meloidogyne incognita [5]): 0%
- Activity (Meloidogyne incognita [6]): 2.04 g
- Activity (Meloidogyne incognita [7]): 38%
- Activity (Pisum sativum [8]): 2.2 g
- Activity (Pisum sativum [9]): 9.4 g
- LC90 [10]: 36 µg/mL (≈ 222 µM)
- LC50 ([10]; Frankliniella occidentalis, soil, 168 h): 22 µg/mL (≈ 136 µM)
- Activity (Meloidogyne incognita [11]): 1.02 g
- Activity (Phaseolus lunatus [12]): 0.26 g
- Root_galling_index (Meloidogyne incognita [13]): 0%
- Root_galling_index (Meloidogyne incognita [14]): 0%
- Activity (Pisum sativum [15]): 7 cm
- Activity (Meloidogyne incognita [16]): 5.2 g
- Activity (Meloidogyne incognita [17]): 100%
- Activity (Pisum sativum [18]): 7.1 cm
- mortality at 20 µg/mL (Meloidogyne incognita [19]): 95%
- Activity (Phaseolus lunatus [20]): 80%
- Activity (Pisum sativum [21]): 3.1 g
- Activity (Meloidogyne incognita [22]): 0.89 g
- Activity (Solanum lycopersicum): 100 µg/mL
- Activity (Meloidogyne incognita [23]): 0.38 g
- Activity (Meloidogyne incognita [24]): 1.83 g
- Activity (Meloidogyne incognita [25]): 0.34 g
- Activity (Meloidogyne incognita [26]): 100%
- Activity (Phaseolus lunatus [27]): 1.51 g
